Reference: paper PMC4945863, “Dual thio-digalactoside-binding modes of human galectins as the structural basis for the design of potent and selective inhibitors” (Scientific Reports, 2016)

Experiments:
galectin-1 = target: T1, galectin-1 (Homo sapiens, UniProt P09382); assay: Isothermal titration calorimetry (ITC), galectin-1; assay type: binding
T1 construct: full-length galectins-1 (residues 1-135); 6xHis; made in house; host or cells: Escherichia coli BL21 (DE3)
Procedure: (§1) Human galectins-1, -3CRD and -7 were produced in E. coli according to previous studies.
(§2) Samples for use in ITC were diluted to appropriate concentrations in dialysate buffer (25 mM Tris-HCl pH 8.0, 300 mM NaCl and 5 mM β-mercaptoethanol) saved from the ultrafiltration step. All samples were filtered with 0.22 μm cutoff filters (Millipore) and extensively degassed with stirring prior to use. […] To avoid heating effects due to differing concentration of DMSO in the injectant and protein solutions, 5% DMSO was added to the protein. Software provided by Microcal was used for the curve fitting of the experimental data as well as for calculation of the thermodynamic data. Specifically, all ITC data were corrected for the heat of dilution of the titrant by subtracting the excess heats at high molar ratios of ligands to galectins. Binding stoichiometry, enthalpy and equilibrium association constants were determined by fitting the corrected data to a bimolecular interaction model and summarised in Table 1.
(§3) Isothermal titration calorimetry (ITC). Samples for use in ITC were diluted to appropriate concentrations in dialysate buffer (25 mM
(§4) Tris-HCl pH 8.0, 300 mM NaCl and 5 mM β-mercaptoethanol) saved from the ultrafiltration step. All samples were filtered with […] cutoff filters (Millipore) and extensively degassed with stirring prior to use.
(§5) Isothermal titration calorimetry was performed using MicroCal
(§6) Auto-iTC200 (MicroCal, INc., Northampton, MA) at 298K. […]
(§7) order to avoid heating effects due to differing concentration of DMSO in the injectant and protein solutions, 5% DMSO was added to the protein.
(§8) Software provided by Microcal was used for the curve fitting of the experimental data as well as for calculation of the thermodynamic data.
(§9) Specifically, all ITC data were corrected for the heat of dilution of the titrant by subtracting the excess heats at high molar ratios of ligands to galectins. Binding stoichiometry, enthalpy and equilibrium association constants were determined by fitting the corrected data to a bimolecular

galectin-7 = target: T2, galectin-7 (Homo sapiens, UniProt P47929); assay: Isothermal titration calorimetry (ITC), galectin-7; assay type: binding
T2 construct: (residues 1-136); 6xHis; made in house; host or cells: Escherichia coli BL21 (DE3)
Procedure: as §1, §2, §3, §4, §5, §6, §7, §8, §9

galectin-3 [1] = target: T3, galectin-3 (Homo sapiens, UniProt P17931); assay: Isothermal titration calorimetry (ITC), galectin-3; assay type: binding
T3 construct: CRD domain of galectin-3 (residues 113-250); 6xHis; made in house; host or cells: Escherichia coli BL21 (DE3)
Procedure: as §1, §2, §3, §4, §5, §6, §7, §8, §9

galectin-3 [2] = details: cited from earlier work

T1 sequence (P09382 whole entry, the tested form may be a part): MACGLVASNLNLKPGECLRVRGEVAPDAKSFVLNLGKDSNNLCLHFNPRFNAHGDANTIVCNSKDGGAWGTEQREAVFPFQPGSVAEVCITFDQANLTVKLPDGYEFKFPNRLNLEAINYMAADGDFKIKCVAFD
T3 sequence (P17931 113-250): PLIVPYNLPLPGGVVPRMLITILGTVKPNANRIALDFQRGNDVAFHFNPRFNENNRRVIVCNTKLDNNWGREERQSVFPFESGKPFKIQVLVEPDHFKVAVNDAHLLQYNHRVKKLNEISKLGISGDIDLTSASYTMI
T2 sequence (P47929 whole entry, the tested form may be a part): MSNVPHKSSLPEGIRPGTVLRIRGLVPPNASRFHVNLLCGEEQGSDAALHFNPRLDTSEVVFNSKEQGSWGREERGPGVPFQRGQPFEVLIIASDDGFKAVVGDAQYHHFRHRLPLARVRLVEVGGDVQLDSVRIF

Row | Compound | -TΔS (galectin-1; 298 K) [kcal/mol] | n (stoichiometry) (galectin-1; 298 K) | ΔH (galectin-1; 298 K) [kcal/mol] | -TΔS (galectin-7; 298 K) [kcal/mol] | Kd (galectin-7; 298 K) [µM] | n (stoichiometry) (galectin-7; 298 K) | ΔG (galectin-7; 298 K) [kcal/mol] | ΔH (galectin-7; 298 K) [kcal/mol] | -TΔS (galectin-3 [1]; ITC, 298 K) [kcal/mol] | n (stoichiometry) (galectin-3 [1]; ITC, 298 K) | ΔG (galectin-3 [1]; ITC, 298 K) [kcal/mol] | ΔH (galectin-3 [1]; ITC, 298 K) [kcal/mol] | also measured
1 | OC[C@H]1O[C@@H](S[C@@H]2O[C@H](CO)[C@H](O)[C@H](n3cc(-c4cccc(F)c4)nn3)[C@H]2O)[C@H](O)[C@@H](O)[C@H]1O [TAZTDG, 3-deoxy-3-(4-[m-fluorophenyl]-1H-1,2,3-triazol-1-yl)-thio-digalactoside] | 8.6 ± 0.51 | 1.06 ± 0.01 | -16.1 ± 0.51 | 4.4 ± 0.04 | 87 ± 3.21 | 0.89 ± 0.01 | -5.5 ± 0.01 | -10.0 ± 0.04 | 6.4 ± 1.02 | 0.92 ± 0.08 | -8.3 ± 0.25 | -14.7 ± 0.99 | Kd (galectin-1; 298 K): 3.24 ± 0.3 µM; ΔG (galectin-1; 298 K): -7.5 ± 0.05 kcal/mol; Relative affinity (galectin-1; 298 K, relative to TDG = 1): 20.7; ΔΔH(TAZTDG–TDG) (galectin-1; galectin-1): -4.5 kcal/mol; Relative affinity (galectin-7; 298 K, relative to TDG = 1): 6.6; ΔΔH(TAZTDG–TDG) (galectin-7; galectin-7): -2.4 kcal/mol; Kd (galectin-3 [1]; ITC, 298 K, galectin-3CRD): 0.84 ± 0.41 µM; Relative affinity (galectin-3 [1]; ITC, 298 K, relative to TDG = 1): 89.7; ΔΔH(TAZTDG–TDG) (galectin-3 [1]; ITC, galectin-3): -5.3 kcal/mol
2 | OC[C@H]1O[C@@H](S[C@@H]2O[C@H](CO)[C@H](O)[C@H](n3cc(-c4cccc(F)c4)nn3)[C@H]2O)[C@H](O)[C@@H](n2cc(-c3cccc(F)c3)nn2)[C@H]1O [TD139, 3,3’-deoxy-3,3’-bis-(4-[m-fluorophenyl]-1H-1,2,3-triazol-1-yl)-thio-digalactoside] | 7.6 ± 0.43 | 0.96 ± 0.04 | -16.7 ± 0.40 | 3.2 ± 0.09 | 38 ± 0.71 | 0.99 ± 0.10 | -6.1 ± 0.06 |  | 8.3 ± 0.90 | 0.96 ± 0.01 | -9.9 ± 0.37 | -18.2 ± 0.82 | binding enhancement compared with binding to TDG (galectin-1; galectin-1): ~ 300 fold; ΔΔH(TD139–TAZTDG) (galectin-1; galectin-1): -0.6 kcal/mol; difference in binding free energy ΔΔG(TD139-TDG) (galectin-7; galectin-7): -1.7 kcal/mol; increase in affinity compared with TDG binding (galectin-7; galectin-7): 15 fold; ΔΔH(TD139–TAZTDG) (galectin-7; galectin-7): 0.7 kcal/mol; binding enhancement compared with TDG (galectin-3 [1]; ITC, galectin-3): ~ 1000 fold; change in binding free energy ΔΔG(TD139-TDG) (galectin-3 [1]; ITC, galectin-3): -4.3 kcal/mol; enthalpy change ΔΔH(TD139-TDG) (galectin-3 [1]; ITC, galectin-3): -8.8 kcal/mol; entropy change –TΔΔS(TD139-TDG) (galectin-3 [1]; ITC, galectin-3): 4.6 kcal/mol; ΔΔH(TD139–TAZTDG) (galectin-3 [1]; ITC, galectin-3): -3.5 kcal/mol; increase in binding affinity compared with L3 (galectin-3 [1]; galectin-3, versus literature Kd of L3): 50 fold
3 | OC[C@H]1O[C@@H](S[C@@H]2O[C@H](CO)[C@H](O)[C@H](O)[C@H]2O)[C@H](O)[C@@H](O)[C@H]1O [TDG, thio-digalactoside] | 5.9 ± 0.27 | 1.02 ± 0.10 | -11.6 ± 0.26 | 3.2 ± 0.55 |  | 0.94 ± 0.02 | -4.4 ± 0.06 | -7.6 ± 0.55 | 3.7 ± 0.48 | 1.02 ± 0.05 |  | -9.4 ± 0.48 | 
4 | 3′-(4-methoxy-2,3,5,6-tetrafluorobenzamido)-N-acetyl-lactosamine [L3] |  |  |  |  |  |  |  |  |  |  |  |  | Kd (galectin-3 [2]): 3.3 µM
